Results taken from PubChem BioAssay AID2384 (Southern Research Specialized Biocontainment Screening …, 2010).
Several values for one entry are separate records, joined by “and”; a condition that tells them apart may be missing. Identical values can stand only once.

tested on: S. typhi GFP reporter counter-screen, fluorescence, 4 h; assay: inhibitors in S. typhi counter-screen strain, dose response, counter-screen for PhoP regulon inhibitor project, fluorescence, 4 h (AID 2384)

Point of comparison: `COc1c(N2CCN(C(=S)NC3CC4CCC3C4)C(C)C2)c(F)cc2c(=O)c(C(=O)O)cn(C3CC3)c12` (configuration not stated), IC50 44.1 µM. Against it:
- O=c1c2c([nH]c3ccccc13)CCCCC2 — 2.6-fold higher, 113 µM
- O=C(CN1C2=NCCCN2c2ccccc21)c1ccc(Br)s1 — within 1.5-fold, 40.2 µM
- O=C(CC(=O)c1c(F)cccc1Cl)c1ccccc1O — within 1.5-fold, 42.9 µM
- Cc1cccc(NC2=NC3(CCCCC3)N=C(N)N2)c1 — 1.7-fold higher, 76.6 µM
- Cc1ccc(CNCCC2=CCCCC2)cc1 — 1.6-fold higher, 70.7 µM
- CN1CCC(OC(=O)c2ccc(Cl)cc2Cl)CC1 — within 1.5-fold, 36.8 µM
- COc1cc(C(=O)N/N=C/c2ccc(OC(=O)c3cccc(C)c3)c(OC)c2)ccc1O — 2.4-fold higher, 108 µM
- CCCOc1ccc(C(=O)NNC(=S)NC(=O)CC)cc1 — 1.5-fold lower, 28.7 µM
- C[C@H]1COc2c(N3CCN(C)CC3)c(F)cc3c(=O)c(C(=O)O)cn1c23 — 64-fold lower, 0.69 µM
- O=[N+]([O-])c1cc(F)c2cccnc2c1O — 6-fold lower, 7.36 µM
- Fc1ccc(Nc2c3c(nc4ccccc24)CCC3)cc1 — within 1.5-fold, 47 µM
- OC(CNCc1ccco1)Cn1c2ccc(Br)cc2c2cc(Br)ccc21 (configuration not stated) — 2.3-fold lower, 18.9 µM
- CN(C)CCCN(C(=O)CCc1ccccc1)c1nc2ccc(Br)cc2s1 — within 1.5-fold, 32.8 µM
- CN1CCCN(S(=O)(=O)c2ccc3ccccc3c2)CC1 — within 1.5-fold, 46 µM
- CCCCCCCCCn1c2c(c(=N)c3c1CCC3)CCC2 — 4.2-fold lower, 10.6 µM
- O=C(N/N=C/c1ccccc1O)c1ccncc1 — 2.2-fold lower, 20.5 µM
- CN1C(=O)NC(c2ccc(O)cc2)C(C(=O)c2cccs2)C1(O)C(F)(F)F (configuration not stated) — 2.3-fold lower, 19.1 µM
- C#CCOCCOCCOCCNc1nc(N2CCN(C(=O)CCCCCCCCCCNC(=O)[C@H](CCCCN)n3cc(C)nn3)CC2)nc(N2CCN(C(=O)CCCCCCCCCCNC(=O)[C@@H]([C@H](C)CC)n3cc(CCCCCN)nn3)CC2)n1 — 2.2-fold lower, 20.4 µM
- Oc1[nH]c2ccc(Br)cc2c1N=NC(=S)N1CCOCC1 — within 1.5-fold, 33.1 µM
- Cc1cc(C)n(-c2nc(NCCN(C)C)c3c4c(sc3n2)CCCC4)n1 — within 1.5-fold, 37.9 µM
- O=C(CCNC(=O)c1ccco1)Nc1ccc(SC(F)F)cc1 — 2.1-fold higher, 93.7 µM
- Cc1cc(N=Nc2ccc(C)c(N=Nc3cc(C)c(N)cc3N)c2)c(N)cc1N — within 1.5-fold, 57.6 µM
- O=C(CCN1CCN(c2ccccc2F)CC1)c1ccc(Br)cc1 — within 1.5-fold, 37.2 µM
- O=C(O)c1cccc(N2C(=O)CSC2=S)c1 — 1.5-fold higher, 68 µM
- Fc1ccc(CCNCc2ccccc2Cl)cc1 — 1.9-fold higher, 83.2 µM
- CCCc1nnc(NC(=O)c2cn(CC)c3cc(N4CCN(C)CC4)c(F)cc3c2=O)s1 — within 1.5-fold, 61.6 µM
- Cc1cc2oc(=O)cc(CN3CCN(C/C=C/c4ccccc4)CC3)c2cc1O — 2.1-fold higher, 92.9 µM
- Cc1cc(Cl)c(OCCCNCc2ccccc2)c(Br)c1 — within 1.5-fold, 37.5 µM
- OCCNCc1cc(Br)ccc1OCc1ccc(Cl)cc1 — within 1.5-fold, 34.7 µM
- CN1CCN(C(c2ccc(C(F)(F)F)cc2)c2ccc3cccnc3c2O)CC1 (configuration not stated) — 2-fold lower, 21.8 µM
- O=C(NC(CO)Cc1ccc([N+](=O)[O-])cc1)C(Cl)Cl (configuration not stated) — 12-fold lower, 3.82 µM
- CCC(C)N1CCC2(CC1)N=c1c(c3c4c5c(C)c(O)c3c(O)c1=NC(=O)C(C)=CC=C[C@H](C)[C@H](O)[C@@H](C)[C@@H](O)[C@@H](C)[C@H](OC(C)=O)[C@H](C)[C@@H](OC)C=CO[C@@](C)(O5)C4=O)N2 (some centres not stated) — 8.3-fold lower, 5.31 µM
- CCCCn1c(NS(=O)(=O)c2ccccc2)c(C(=O)OCC)c2nc3ccccc3nc21 — within 1.5-fold, 58.9 µM
- COc1cc(CNC2CCCC2)cc(Cl)c1OCc1ccccc1Cl — within 1.5-fold, 38 µM
- CCn1cc(C(=O)O)c(=O)c2cc(F)c(N3CCN(C(=S)NC(=O)c4ccccc4)CC3)cc21 — 1.8-fold higher, 78.2 µM
- Nc1cc(Cl)c2nonc2c1[N+](=O)[O-] — within 1.5-fold, 32.6 µM
- N/C(=N\OS(=O)(=O)c1ccccc1)c1cccnc1 — 3.6-fold lower, 12.4 µM
- Cc1ccc2c(c1)N/C(=C(\C=C(/Cl)[N+](=O)[O-])[N+](=O)[O-])N2 — 3-fold higher, 131 µM
- CCCCCCCCCCOC(=O)Cn1c(COc2ccccc2C)[n+](C)c2ccccc21 — 4.2-fold lower, 10.4 µM
- Cc1ccc2c(c1)c1c(n2CC(O)CNC2CCCCC2)CCCC1 (configuration not stated) — 2-fold higher, 87.1 µM
- CCN1CCCC1CNC(=O)C1CCN(Cc2nc(-c3cccc(Br)c3)oc2C)CC1 (configuration not stated) — within 1.5-fold, 33.3 µM
- CC(NCc1ccccc1O)C12CC3CC(CC(C3)C1)C2 (configuration not stated) — within 1.5-fold, 33.9 µM
- O=C(Cc1ccccc1)NNC(=S)NC(=O)c1cccs1 — within 1.5-fold, 32.3 µM
- O=C(/C=C/c1ccco1)NC(=S)NNC(=O)c1ccco1 — 2.1-fold higher, 90.8 µM
- CC[C@H]1OC(=O)C[C@@H](O)[C@H](C)[C@@H](O[C@@H]2O[C@H](C)C[C@H](N(C)C)[C@H]2O)[C@@H](CC=O)C[C@@H](C)C(=O)C=C[C@]2(C)O[C@H]2[C@@H]1C — 11-fold lower, 3.95 µM
- CCCCCC[N+](C)(C)CC/C=C1/c2ccccc2Sc2ccc(Cl)cc21 — 1.7-fold lower, 26.2 µM
- O=[N+]([O-])c1ccc(N2CCNCC2)cc1NCc1cccnc1 — 1.7-fold higher, 73.8 µM
- Cc1ccc(C(=O)NNC(=S)NC(=O)COc2ccccc2)cc1 — within 1.5-fold, 63.9 µM
- Nc1nc(F)nc2c1ncn2[C@@H]1O[C@H](CO)[C@@H](O)[C@H]1O — 1.8-fold lower, 24.1 µM
- CC(C)(C)c1ccc(OCCCCCCN2CCNCC2)cc1 — within 1.5-fold, 49.2 µM
- O=C(N/N=C/c1cc(Br)cc(Br)c1O)c1ccncc1 — within 1.5-fold, 45.3 µM
- CN1CCN(c2nc(Nc3ccc(F)cc3)nc(Nc3ccc(F)cc3)n2)CC1 — 2-fold higher, 86.7 µM
- CN(C)c1ccc2nc3ccc(=[N+](C)C)cc-3sc2c1 — within 1.5-fold, 45.3 µM
- CCC(C)(C)c1ccc(OCCCC[n+]2ccccc2)c(C(C)(C)CC)c1 — within 1.5-fold, 35.3 µM
- c1ccc(CN2CCN(c3nc(NCc4ccco4)c4ccccc4n3)CC2)cc1 — within 1.5-fold, 64.6 µM
- Oc1ccccc1C(Nc1nccs1)c1ccc2cccnc2c1O (configuration not stated) — 2.4-fold lower, 18.6 µM
- Oc1c(I)cc(Cl)c2cccnc12 — 7.8-fold lower, 5.62 µM
- c1ccc2c(c1)CSc1sccc1C2=C1CCNCC1 — 1.8-fold higher, 80.3 µM
- Clc1cc(Br)ccc1OCCCNCc1ccccc1 — within 1.5-fold, 39.3 µM
- Cc1cccn2c(=O)c(C=O)c(Cl)nc12 — 3.3-fold higher, 145 µM
- O=C(Nc1nnc(C(F)(F)F)s1)c1ccc(Br)s1 — 3.1-fold higher, 137 µM
- Nc1nc(Nc2ccccc2)nc2ccccc12 — within 1.5-fold, 42.4 µM
- COc1ccc(OCC(O)CNc2ccc(Br)cc2)cc1 (configuration not stated) — 12-fold lower, 3.74 µM
- CCN(CC)c1ccc(CNc2nc3ccccc3n2CCN2CCCCC2)cc1 — within 1.5-fold, 43.5 µM
- CC1CCN(CCOCCOc2ccc(Br)cc2Cl)CC1 — 2.2-fold higher, 97.8 µM
- O=C(Cc1ccc(Br)cc1)c1ccc(O)cc1O — 2.4-fold higher, 107 µM
- CCCCCCCCCCn1c2c(c(=N)c3c1CCC3)CCC2 — 4.5-fold lower, 9.77 µM
- COc1ccc(NC(=O)c2[nH]ncc2[N+](=O)[O-])cc1 — 3-fold higher, 133 µM
- CN(C)C1C(=O)C(C(N)=O)=C(O)C2(O)C(=O)C3=C(O)c4c(O)cccc4C(C)(O)C3C(O)C12 (configuration not stated) — 53-fold lower, 0.83 µM
- S=C(Nc1ccc(Cl)c(Cl)c1)NC1CCN(Cc2ccccc2)CC1 — within 1.5-fold, 37.8 µM
- CN(C)CCCNC(=S)NCC(c1ccc(Cl)cc1Cl)c1c[nH]c2ccccc12 (configuration not stated) — 1.7-fold lower, 26.4 µM
- CN1CCN(c2nc3cc(C(F)(F)F)ccc3n3cccc23)CC1 — within 1.5-fold, 42.4 µM
- Nc1ncncc1-c1ccc([N+](=O)[O-])cc1 — within 1.5-fold, 43.9 µM
- COc1ccc(C(=O)NC(=S)NNC(=O)c2cnccn2)cc1 — within 1.5-fold, 47.1 µM
- COc1cc(Br)cc(C=Nc2cccc(C(F)(F)F)c2)c1O — 1.7-fold higher, 73.8 µM
- O=[N+]([O-])c1ccc(O)c(/C=N/Nc2ccccn2)c1 — 4.7-fold lower, 9.31 µM
- N=c1c2c(n(Cc3ccc(Cl)cc3Cl)c3c1CCC3)CCCC2 — within 1.5-fold, 37.5 µM
- CCCCCCCCCCCCCCCC[n+]1cccc(C(=O)N(CC)CC)c1 — 2.4-fold lower, 18.3 µM
- O=C(CSc1nc2ccccc2[nH]1)Nc1ccc(F)c(F)c1 — 1.7-fold higher, 74.2 µM
- Nc1nc(Nc2cccc(F)c2)nc2ccccc12 — 2-fold lower, 22.5 µM

`NC(=NCCCCCCN=C(N)/N=C(\N)Nc1ccc(Cl)cc1)/N=C(\N)Nc1ccc(Cl)cc1` was tested, and the IC50 was 5.2 µM and 5.4 µM and 5.13 µM.
